Measurements taken from patent publication US4311645A, “Synthesis of SRS-active compounds” (Hoffmann-La Roche Inc., priority 1980, dated 1982).
Where a name gives a salt, the structure may show the parent alone. Read-outs that look alike come from different tables or passages of the source.

Columns and labels:
Compound E = assay: Inhibition of contraction of guinea pig ileum induced by Compound E; format: cell-based; conditions: Cavia porcellus
Compound B = assay: Inhibition of contraction of guinea pig ileum induced by Compound B; format: cell-based; conditions: Compound B at its EC50, n=1, extrapolated from graph
Protocol: (§1) SRS-A was assayed utilizing the procedure described by Orange and Austen, J. Immunol. 10, 105 (1969) as follows: a 1.5 cm segment of ileum was removed from male guinea pigs weighing from 250 to 300 grams. The segment of ileum was suspended in a 10 ml organ bath containing Tyrodes solution. The ileum was attached to a strain gauge transducer and contractions were recorded on a strip chart recorder. The bath contained 10^-6 M atropine sulfate to block contractions which might be caused by acetylcholine and 10^-6 M pyrilamine maleate to block histamine-induced contractions. The bath was maintained at 37° C. and gassed with a mixture of 95% O2 and 5% CO2. The concentration of SRS-A in the filtrate obtained by challenging lung tissue with egg albumin was determined by comparing the contraction solicited by a given volume of the filtrate with the contraction elicited by […] of histamine (in the absence of pyrilamine maleate). One unit of SRS-A is equivalent to that quantity which will give the same contraction as this amount of histamine. […] After standardization, this SRS-A was stored in small aliquots at -80° C. for further use. […]
(§2) The assay was carried out as described in Example 23. […] The difference in the level of the contraction obtained in the absence and presence of varying concentrations of Compound I was determined. […]

natural SRS-A = assay: Inhibition of contraction of guinea pig ileum induced by natural SRS-A; format: cell-based; conditions: Cavia porcellus; read-out: IC50 against natural SRS-A
Protocol: as §1, §2

guinea pig ileum = assay: SRS-A activity: contraction of isolated guinea pig ileum (bioassay); format: cell-based; conditions: read-out: EC50 (concentration giving 50% of the maximal contraction of the ileum produced by natural SRS-A), 37° C, atropine sulfate 10^-6 M and pyrilamine maleate 10^-6 M in bath, average ± S.E., n = 2-5 ileums
Protocol: SRS-A was assayed utilizing the procedure described by Orange and Austen, J. Immunol. […] The segment of ileum was suspended in a 10 ml organ bath containing Tyrodes solution. The ileum was attached to a strain gauge transducer and contractions were recorded on a strip chart recorder. The bath contained 10^-6 M atropine sulfate to block contractions which might be caused by acetylcholine and 10^-6 M pyrilamine maleate to block histamine-induced contractions. The bath was maintained at 37° C. and gassed with a mixture of 95% O2 and 5% CO2. The concentration of SRS-A in the filtrate obtained by challenging lung tissue with egg albumin was determined by comparing the contraction solicited by a given volume of the filtrate with the contraction elicited by […] of histamine (in the absence of pyrilamine maleate). One unit of SRS-A is equivalent to that quantity which will give the same contraction as this amount of histamine. […] After standardization, this SRS-A was stored in small aliquots at -80° C. for further use.

[1] = background, literature; cited from earlier work

## CCCCCC#CCC#C/C=C/C=C/[C@H]1O[C@@H]1CCCC(=O)OC (relative stereo) [(R,S) (All E)-3-(1,3-tetradecadien-5,8-diynyl)-trans-oxiranebutanoic acid methyl ester]
Compound E; Example 26, SRS-A active compound used: Compound E, n=1, read-out: IC50 (antagonist against synthetic Compound E)
  IC50: 10000 nM

## CCCc1c(OCC(O)COc2ccc3c(=O)cc(C(=O)O)oc3c2CCC)ccc(C(C)=O)c1O (centres unmarked) [Compound I, 7-[3-(4-acetyl-3-hydroxy-2-propylphenoxy)-2-hydroxypropoxy]-4-oxo-8-propyl-4H-benzopyran-2-carboxylic acid]
Compound E; read-out: IC50 against Compound E
  IC50: 40 nM
Compound B; Cavia porcellus, read-out: IC50 against Compound B, 3 min preincubation
  IC50: 35 nM
Compound B; read-out: IC50 against Compound B, 3 min preincubation
  IC50: 40 nM
Natural SRS-A
  IC50: 37 nM

## CCCCCC#CCC#C/C=C/C=C/[C@@H](SC[C@H](N)C(=O)O)[C@@H](O)CCCC(=O)O [D, (5S,6R) (E,E)-S-(5-hydroxy-1-hydroxy-1-oxoeicosa-7,9-dien-11,14-diyn-6-yl)-L-cysteine mono ammonium salt]
Guinea pig ileum; Cavia porcellus
  EC50: 1100 nM

## CCCCCC=CCC=CC=CC=CC(SCC(N)C(=O)O)C(O)CCCC(=O)O (centres unmarked) [compound obtained by Samuelsson]
[1]
  SRS-A activity: found to have SRS-A activity

## (5R,6S) (E,E,Z,Z)-S-(5-hydroxy-1-methoxy-1-oxoeicosa-7,9,11,14-tetraen-6-yl)-L-cysteine mono ammonium salt
Guinea pig ileum
  EC50: 28 nM
